The test system of test [1] is L1210. Nature of the test: Concentration required for 50% cell growth inhibition against L1210 mouse lymphocytic leukemia. It counts as functional, cell-based.
Test [2] concerns L1210. Nature of the test: Compound was tested for relative inhibitory concentration required for 50% cell growth inhibition against L1210 mouse lymphocytic leukemia to untreated controls. It counts as functional.

Values after ≈ are worked out from the molar mass of the structure shown.

`OC1=CC2=NCC3CC23c2ccccc21` (racemic): in the test on L1210 [1], the IC50 – broadly, the point on the concentration scale where inhibition reaches its midpoint – is 2000 ng/mL (≈ 10100 nM). Further, in the test with L1210 [2], the “Relative IC50” value is 0.0005.

`CC(C)(C)OC(=O)NNC(=O)N1CC(CCl)c2c1cc(O)c1ccccc21` (racemic): it took 100 ng/mL (≈ 255 nM) to reach half-maximal inhibition in the test on L1210 [1] (IC50). Also, the “Relative IC50” value in the test on L1210 [2] is given as 0.01.

`CC(C)(C)OC(=O)N1CC2CC23C1=CC(=O)c1ccccc13` (racemic): the IC50 in the test with L1210 [1] is 50 ng/mL (≈ 168 nM). Moreover, the “Relative IC50” value in the test on L1210 [2] came out at 0.02.

For `Cl.NNC(=O)N1CC(CCl)c2c1cc(O)c1ccccc21` (racemic), half-maximal inhibition with L1210 [1] (IC50) was put at 1 ng/mL. Further, in the test on L1210 [2], the “Relative IC50” value is 1.

As for `COc1c(O)c2c(c3cc(C(=O)N4CCc5c4c(O)c(OC)c4[nH]c(C(=O)N6C[C@H]7C[C@@]78C6=CC(=O)c6[nH]cc(C)c68)cc54)[nH]c13)CCN2C(N)=O` [(+)-CC-1065], the IC50 in the test on L1210 [1] was found to be 0.01 ng/mL (≈ 0.0142 nM). In addition, in the test with L1210 [2], the “Relative IC50” value is listed as 100.

Values taken from ChEMBL document CHEMBL1125942, “A potent, simple derivative of an analog of the CC-1065 alkylation subunit” (Bioorg Med Chem Lett, 1991).
